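Exposure lasted 48 hours, with cells grown in 96-well plates and compounds tested at five concentrations. The concentration for 50% growth inhibition is given as GI50.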 Active and inactive are the calls of the source. Cut-off read from the data, not from the text of the source: active = GI50 up to about 1.1 µM and inactive = higher.
Legend:
Assay in all cases: inhibition of tumour cell growth, NCI panel, 48 h
K562 = system: K562
RXF 631 = system: RXF 631
COLO 205 = system: COLO 205
SF-268 = system: SF-268
M14 = system: M14
KM-20L2 = system: KM-20L2
HCT-116 = system: HCT-116
A498 = system: A498
CAKI-1 = system: CAKI-1
NCI-H23 = system: NCI-H23
HCT-15 = system: HCT-15
IGROV-1 = system: IGROV-1
KM12 = system: KM12
HL-60 = system: HL-60
SNB-75 = system: SNB-75
UACC-257 = system: UACC-257
HOP-18 = system: HOP-18
RPMI-8226 = system: RPMI-8226
HCC 2998 = system: HCC 2998
OVCAR-8 = system: OVCAR-8
TK-10 = system: TK-10
SK-MEL-28 = system: SK-MEL-28
DLD-1 = system: DLD-1
SNB-19 = system: SNB-19
SNB-78 = system: SNB-78
SF-539 = system: SF-539
XF498 = system: XF498
SR = system: SR
M19-MEL = system: M19-MEL
SF-295 = system: SF-295
U-251 = system: U-251
HT-29 = system: HT-29
NCI-H522 = system: NCI-H522
LXFL 529 = system: LXFL 529
UO-31 = system: UO-31
UACC-62 = system: UACC-62
RXF 393 = system: RXF 393
786-0 = system: 786-0
Malme-3M = system: Malme-3M
OVCAR-4 = system: OVCAR-4
NCI-H226 = system: NCI-H226
SW-620 = system: SW-620
SK-OV-3 = system: SK-OV-3
HOP-92 = system: HOP-92
A549 = system: A549
ACHN = system: ACHN
NCI-H460 = system: NCI-H460
HOP-62 = system: HOP-62
CCRF-CEM = system: CCRF-CEM
EKVX = system: EKVX
SK-MEL-5 = system: SK-MEL-5
OVCAR-3 = system: OVCAR-3
SN12C = system: SN12C
MOLT-4 = system: MOLT-4
LOX IMVI = system: LOX IMVI
OVCAR-5 = system: OVCAR-5
DMS-114 = system: DMS-114
SK-MEL-2 = system: SK-MEL-2
DMS-273 = system: DMS-273

`C[C@@H]1OC2(O)[C@H]3CCCN3S(=O)(=O)CCN2C1=O` (some centres not stated) was tested, and the GI50 (K562) was > 100 µM (inactive), the GI50 (RXF 631) was > 100 µM (inactive) and the GI50 (COLO 205) was > 100 µM (inactive). For the same compound, the GI50 (SF-268) was > 100 µM (inactive), the GI50 (M14) was > 100 µM (inactive) and the GI50 (KM-20L2) was > 100 µM (inactive). The GI50 (HCT-116) was > 100 µM (inactive), the GI50 (A498) was > 100 µM (inactive) and the GI50 (CAKI-1) was > 100 µM (inactive). The GI50 (NCI-H23) was > 100 µM (inactive), the GI50 (HCT-15) was over 100 µM and the GI50 (IGROV-1) was > 100 µM (inactive). For the same compound, the GI50 (KM12) was > 100 µM (inactive), the GI50 (HL-60) was > 100 µM (inactive) and the GI50 (SNB-75) was > 100 µM (inactive). For the same compound, the GI50 (UACC-257) was > 100 µM (inactive), the GI50 (HOP-18) was > 100 µM (inactive) and the GI50 (RPMI-8226) was > 100 µM (inactive). The GI50 (HCC 2998) was > 100 µM (inactive), the GI50 (OVCAR-8) was > 100 µM (inactive) and the GI50 (TK-10) was > 100 µM (inactive). The GI50 (SK-MEL-28) was > 100 µM (inactive), the GI50 (DLD-1) was > 100 µM (inactive) and the GI50 (SNB-19) was > 100 µM (inactive). For the same compound, the GI50 (SNB-78) was > 100 µM (inactive), the GI50 (SF-539) was > 100 µM (inactive) and the GI50 (XF498) was 0.0306 µM (active). For the same compound, the GI50 (SR) was > 100 µM (inactive), the GI50 (M19-MEL) was > 100 µM (inactive) and the GI50 (SF-295) was > 100 µM (inactive). For the same compound, the GI50 (U-251) was > 100 µM (inactive), the GI50 (HT-29) was > 100 µM (inactive) and the GI50 (NCI-H522) was > 100 µM (inactive). The GI50 (LXFL 529) was > 100 µM (inactive), the GI50 (UO-31) was > 100 µM (inactive) and the GI50 (UACC-62) was > 100 µM (inactive). For the same compound, the GI50 (RXF 393) was > 100 µM (inactive), the GI50 (786-0) was > 100 µM (inactive) and the GI50 (Malme-3M) was > 100 µM (inactive). The GI50 (OVCAR-4) was > 100 µM (inactive), the GI50 (NCI-H226) was > 100 µM (inactive) and the GI50 (SW-620) was > 100 µM (inactive). The GI50 (SK-OV-3) was > 100 µM (inactive), the GI50 (HOP-92) was > 100 µM (inactive) and the GI50 (A549) was > 100 µM (inactive). For the same compound, the GI50 (ACHN) was > 100 µM (inactive), the GI50 (NCI-H460) was > 100 µM (inactive) and the GI50 (HOP-62) was > 100 µM (inactive). For the same compound, the GI50 (CCRF-CEM) was > 100 µM (inactive), the GI50 (EKVX) was > 100 µM (inactive) and the GI50 (SK-MEL-5) was > 100 µM (inactive). The GI50 (OVCAR-3) was > 100 µM (inactive), the GI50 (SN12C) was > 100 µM (inactive) and the GI50 (MOLT-4) was > 100 µM (inactive). The GI50 (LOX IMVI) was > 100 µM (inactive) and the GI50 (OVCAR-5) was > 100 µM (inactive).

For `CCCCCCCCCCCC(=O)OC(COC(N)=O)COc1ccc(Cl)cc1` (configuration not stated), the GI50 (K562) was 19.2 µM (inactive), the GI50 (RXF 631) was 26.2 µM (inactive) and the GI50 (COLO 205) was 17 µM (inactive). For the same compound, the GI50 (SF-268) was 20.6 µM (inactive), the GI50 (M14) was 20.1 µM (inactive) and the GI50 (KM-20L2) was 37.8 µM (inactive). The GI50 (HCT-116) was 15.9 µM (inactive), the GI50 (A498) was 65.9 µM (inactive) and the GI50 (DMS-114) was 17.3 µM (inactive). The GI50 (CAKI-1) was 21.3 µM (inactive), the GI50 (NCI-H23) was 20.7 µM (inactive) and the GI50 (HCT-15) was 28 µM. The GI50 (IGROV-1) was 27.5 µM (inactive), the GI50 (KM12) was 25.8 µM (inactive) and the GI50 (HL-60) was 15.3 µM (inactive). For the same compound, the GI50 (SNB-75) was 33.4 µM (inactive), the GI50 (UACC-257) was 19.1 µM (inactive) and the GI50 (HOP-18) was 11.3 µM (inactive). For the same compound, the GI50 (RPMI-8226) was 22.1 µM (inactive), the GI50 (HCC 2998) was 30.5 µM (inactive) and the GI50 (OVCAR-8) was 17.7 µM (inactive). For the same compound, the GI50 (TK-10) was 30.6 µM (inactive), the GI50 (SK-MEL-28) was 20.3 µM (inactive) and the GI50 (DLD-1) was 38 µM (inactive). For the same compound, the GI50 (SNB-19) was 33.3 µM (inactive), the GI50 (SNB-78) was 24.3 µM (inactive) and the GI50 (SF-539) was 18.8 µM (inactive). For the same compound, the GI50 (XF498) was 21.4 µM (inactive), the GI50 (M19-MEL) was 18.6 µM (inactive) and the GI50 (SF-295) was 20.3 µM (inactive). For the same compound, the GI50 (U-251) was 25.8 µM (inactive), the GI50 (HT-29) was 20 µM (inactive) and the GI50 (NCI-H522) was 17.1 µM (inactive). For the same compound, the GI50 (LXFL 529) was 20.8 µM (inactive), the GI50 (UO-31) was 32.9 µM (inactive) and the GI50 (UACC-62) was 19.5 µM (inactive). The GI50 (RXF 393) was 21 µM (inactive), the GI50 (786-0) was 35.8 µM (inactive) and the GI50 (Malme-3M) was 21.9 µM (inactive). For the same compound, the GI50 (OVCAR-4) was 19.1 µM (inactive), the GI50 (NCI-H226) was 17.3 µM (inactive) and the GI50 (SW-620) was 24.3 µM (inactive). The GI50 (SK-OV-3) was > 100 µM (inactive), the GI50 (SK-MEL-2) was 24.5 µM (inactive) and the GI50 (DMS-273) was 20.9 µM (inactive). The GI50 (A549) was 19.1 µM (inactive), the GI50 (ACHN) was > 100 µM (inactive) and the GI50 (NCI-H460) was 23.7 µM (inactive). The GI50 (HOP-62) was 25 µM (inactive), the GI50 (CCRF-CEM) was 18.2 µM (inactive) and the GI50 (EKVX) was 30.1 µM (inactive). For the same compound, the GI50 (SK-MEL-5) was 17.6 µM (inactive), the GI50 (OVCAR-3) was 16.3 µM (inactive) and the GI50 (SN12C) was 26.7 µM (inactive). For the same compound, the GI50 (MOLT-4) was 23.7 µM (inactive) and the GI50 (LOX IMVI) was 23.2 µM (inactive).

— ChEMBL document CHEMBL1201862, “PubChem BioAssay data set” (2004)
